{"source": "patent US8507411B2", "about": "“Neoglycorandomization and digitoxin analogs” (priority 2004, dated 2013)", "key": {"NmuMG": {"test_system": "NmuMG", "assay": "cells", "type": "cell-based, mouse", "how_it_was_run": "(§1)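 RPMI 1640 + 10% FBS (NmuMG: DMEM + 10% FBS + insulin); 10–15k cells/well, 1 h attach; 5-pt 2-fold dose series, 72 h; PBS wash, calcein AM 30 min 37 °C; ex485/em535; 4-PL fit, n ≥ 6.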"}, "[1]": {"assay": "Hydrolytic stability of the neoglycosidic linkage", "type": "physicochemical", "details": "3 mM in 1:1 DMSO/buffer, one month", "method": "FIG. 4 is a graphic representation of the results of studies on the hydrolytic stability of neoglycoside 4α. The chemical stability of the neoglycosidic linkage was examined by monitoring the hydrolytic degradation of neoglycoside 4α in a 3 mM solution of 1:1 DMSO/buffer. Three buffers were used, 50 mM acetate buffer (pH 5), 50 mM phosphate buffer (pH 7), and 50 mM Tris buffer (pH 9). Neoglycoside degradation was monitored by reverse phase HPLC on an Agilent Zorbax Eclipse XDB-C8 column (4.6×150 mm) with a flow rate of 0.8 mL min^−1 and a linear gradient of 49% CH3OH/H2O to 89% CH3OH/H2O over 20 min. At t=0, neoglycoside 4α in 500 μL DMSO was added to 500 μL buffer, and the resulting solution was vortexed for 40 sec, then immediately injected onto the HPLC. Peak areas at 220 nm were used to estimate the neoglycoside/aglycon ratio, which is reported as “percent neoglycoside remaining” [Aneoglycoside/(Aneoglycoside+Aaglycon)] for each of the three buffer systems.\nHydrolytic Stability of 4α. The chemical stability of the neoglycosidic linkage was examined by monitoring the hydrolytic degradation of neoglycoside 4α in a 3 mM solution of 1:1 DMSO/buffer. Three buffers were used, 50 mM acetate buffer (pH 5), 50 mM phosphate buffer (pH 7), and 50 mM Tris buffer (pH 9). Neoglycoside degradation was monitored by reverse phase HPLC on an Agilent Zorbax Eclipse XDB-C8 column (4.6×150 mm) with a flow rate of 0.8 mL min^−1 and a linear gradient of 49% CH3OH/H2O to 89% CH3OH/H2O over 20 min. At t=0, neoglycoside 4α in 500 μL DMSO was added to 500 μL buffer, and the resulting solution was vortexed for 40 sec, then immediately injected onto the HPLC. Peak areas at 220 nm were used to estimate the neoglycoside/aglycon ratio, which is reported as “percent neoglycoside remaining” [Aneoglycoside/(Aneoglycoside+Aaglycon)] for each of the three buffer systems (see FIG. 4).\nThe chemical stability of the neoglycosidic linkage was examined by monitoring the hydrolytic degradation of neoglycoside 4α in a 3 mM solution of 1:1 DMSO/buffer using buffers at three different pHs."}, "MCF7": {"test_system": "MCF7", "assay": "High-throughput calcein AM cytotoxicity assay, MCF7", "type": "cell-based, human", "details": "MCF7 cells", "text": "(§2) Standard errors are depicted with error bars."}, "Du145": {"test_system": "Du145", "assay": "High-throughput calcein AM cytotoxicity assay, Du145", "type": "cell-based, human", "details": "Du145 cells", "text": "as §2"}, "HCT-116": {"test_system": "HCT-116", "assay": "High-throughput calcein AM cytotoxicity assay, HCT-116", "type": "cell-based, human", "details": "HCT-116 cells", "text": "as §2"}, "NCI-H460": {"test_system": "NCI-H460", "assay": "High-throughput calcein AM cytotoxicity assay, NCI-H460", "type": "cell-based, human", "details": "NCI-H460 cells", "text": "as §2"}, "A549": {"test_system": "A549", "assay": "High-throughput calcein AM cytotoxicity assay, A549", "type": "cell-based, human", "details": "A549 cells", "text": "as §2"}, "SF-268": {"test_system": "SF-268", "assay": "cells", "type": "cell-based, human", "details": "SF-268 cells", "how_it_was_run": "as §1"}, "NCI/ADR-RES": {"test_system": "NCI/ADR-RES", "assay": "cells", "type": "cell-based, human", "details": "NCI/ADR-RES cells", "how_it_was_run": "as §1"}, "SK-OV-3": {"test_system": "SK-OV-3", "assay": "cells", "type": "cell-based, human", "details": "SK-OV-3 cells", "how_it_was_run": "as §1"}, "Hep3B": {"test_system": "Hep3B", "assay": "High-throughput calcein AM cytotoxicity assay, Hep3B", "type": "cell-based, human", "details": "Hep 3B cells", "text": "as §2"}, "Na+/K+-ATPase [2]": {"molecular_target": "T1, Na+/K+-ATPase (Homo sapiens, UniProt P05023)", "T1 construct": "endogenous in cells; host or cells: HEK-293", "assay": "Non-radioactive rubidium ion uptake assay, HEK-293 cells", "type": "cell-based", "details": "read-out: Na+/K+-ATPase Inhibition IC50", "method": "(§3) Na/K-ATPase Assays. Inhibition of Na^+/K^+-ATPase on HEK-293 cells and CHO-K1 cells by the library hits was determined by Aurora Biomed, Inc. using a high-throughput non-radioactive rubidium ion uptake assay. Experiments were conducted in duplicate using three different concentrations. Within each experiment, percent inhibition values at the three concentrations were expressed as the percent reduction of the maximum absorption signal observed for a 0 nM control. IC50 values were determined using the following formula: IC50=[(50−low %)/(high %−low %)]×(high conc.−low conc.)+low conc.\n(§4) To assess how these structural modifications impact the ability of library members to inhibit Na^+/K^+-ATPases, a fundamental activity of cardiac glycosides (Paula, S., et al., (2005) Biochemistry 44, 498-510), library hits 5β, 15β, 23β, 27β, 33β, 40β, and digitoxin (1) were submitted to a non-radioactive rubidium uptake assay to gauge Na^+/K^+-ATPase inhibition in both […] human embryonic kidney cells and CHO-K1 hamster ovary cells (Gill, S. et al., (2004) ASSAY and Drug Development Technologies 2, 535-542)."}, "[3]": {"test_system": "nine human cancer cell lines and a mouse mammary normal epithelial control line", "assay": "High-throughput calcein AM cytotoxicity assay, whole cell line panel", "details": "cell line panel, 72 h, calcein AM", "text": "In the assay, live cells were distinguished by the presence of a ubiquitous intracellular enzymatic activity which converts the non-fluorescent cell-permeable molecule calcein AM to the intensely fluorescent molecule calcein, which is retained within live cells. The IC50 value for each library member represents at least six replicates of dose-response experiments conducted over five concentrations using two-fold dilutions. […] Standard errors are depicted with error bars. Numerical values and corresponding error values can be found in Table 4. Du145: […]; MCF7: human breast carcinoma; HCT-116: human colon carcinoma, Hep3B: human liver carcinoma; SF-268: human CNS glioblastoma; SK-OV-3: human ovary adenocarcinoma; NCI-H460: human lung carcinoma; A549: human lung adenocarcinoma; NCI/ADR-RES: human breast carcinoma; NmuMG: mouse mammary normal epithelial.\nCell Culture: All cell lines except NmuMG were maintained in RPMI 1640 medium from InVitrogen (Cat No. 11875-085) supplemented with 10% w/v fetal bovine serum (FBS) from ICN (Cat No. 2916154) and penicillin-streptomycin (PS) (100 U/mL and 100 μg/mL) from InVitrogen (Cat No. 15140-122). NmuMG cells were maintained in DMEM medium from InVitrogen (Cat No. 11965-084) supplemented with 10% w/v fetal bovine serum (FBS) from ICN (Cat No. 2916154), 10 μg/ml insulin (InVitrogen Cat No 12585-014), and penicillin-streptomycin (PS) (100 U/mL and 100 μg/mL) from InVitrogen (Cat No. 15140-122). Cells were harvested by trypsinization using 0.25% w/v trypsin and 0.1% w/v EDTA from InVitrogen (Cat No. 15-050-057) and then counted in a hemocytometer in duplicate with better than 10% agreement in field counts. Cells were plated at a cell density of 10,000-15,000 cells/well of each Corning Costar 96-well black tissue culture treated microtiter plate (Fisher Cat No. 07-200-627). Cells were grown for 1 h at 37° C., with 5% CO2 in a humidified incubator to allow cell attachment to occur before compound addition.\nLibrary Member Handling and Preparation for Cytotoxicity Assays: Library members were stored at −20° C. under dessicating conditions before the assay. Library member stocks (100×) were prepared in Corning Costar polypropylene 96-well V-bottom polypropylene microtiter plates (Fisher Cat No. 07-200-695). Five serial 1:2 dilutions were made with anhydrous DMSO at 100× the final concentration used in the assay.\nLibrary Member Addition: The library member-containing plates were diluted 1:10 with complete cell culture media. The 10× stocks (10 μL) were added to the attached cells using a Biomek FX liquid handler (Beckman-Coulter). Library member stocks (10 μL) were added to 90 μL of cells in each plate to insure full mixing of stocks with culture media using a Beckman FX liquid handler with 96-well head.\nDetermination of Cytotoxicity: Cells were incubated with the library members for 72 h before fluorescence reading. Test plates were removed from the incubator and washed 1× in sterile PBS to remove serum containing calcium esterases. Calcein AM reagent (30 μL, […]) was added and the cells were incubated for 30 min at 37° C. Plates were read for emission using a fluorescein filter (excitation 485 nm, emission 535 nm).\nIC50 Calculation: For each library member, at least six dose response experiments were conducted. […] To calculate IC50, percent inhibitions were plotted as a function of log [concentration] and then fit to a four-parameter logistic model that allowed for a variable Hill slope using XLfit 4.1.\nCytotoxicity Assays. All cell lines except NmuMG were maintained in RPMI 1640 medium supplemented with 10% w/v fetal bovine serum (FBS) and penicillin-streptomycin (PS) (100 U/mL and 100 μg/mL)."}, "Na+/K+-ATPase [4]": {"molecular_target": "Na+/K+-ATPase (Cricetulus griseus, UniProt A0A8C2N4Z0)", "assay": "Non-radioactive rubidium ion uptake assay, CHO-K1 cells", "type": "cell-based, hamster", "details": "read-out: Na+/K+-ATPase Inhibition IC50", "method": "as §3, §4"}}, "note": "Where two headings read alike, the source gives them in different places."}
{"compound": "CON([C@@H]1CC[C@@]2(C)[C@H](CC[C@@H]3[C@@H]2CC[C@]2(C)[C@@H](C4=CC(=O)OC4)CC[C@]32O)C1)[C@@H]1O[C@H](CO)[C@@H](O)[C@H](O)[C@H]1O", "note": "[4α, D-glucoside]", "values": [{"measurement": "IC50", "setting": "NmuMG; NmuMG cells (mouse mammary normal epithelial control line), read-out: IC50", "result": "> 25", "unit": "µM"}, {"measurement": "hydrolytic stability", "setting": "[1]; acidic conditions (pH 5)", "result": "slowly hydrolyzed"}, {"measurement": "hydrolytic stability", "setting": "[1]; neutral or basic conditions (pH 7, pH 9)", "result": "completely stable"}, {"measurement": "IC50", "setting": "MCF7; read-out: IC50", "result": "> 25", "unit": "µM"}, {"measurement": "IC50", "setting": "Du145; read-out: IC50", "result": "> 25", "unit": "µM"}, {"measurement": "IC50", "setting": "HCT-116; read-out: IC50", "result": "> 25", "unit": "µM"}, {"measurement": "IC50", "setting": "NCI-H460; read-out: IC50", "result": "> 25", "unit": "µM"}, {"measurement": "IC50", "setting": "A549; read-out: IC50", "result": "> 25", "unit": "µM"}, {"measurement": "IC50", "setting": "SF-268; read-out: IC50", "result": "> 25", "unit": "µM"}, {"measurement": "IC50", "setting": "NCI/ADR-RES; read-out: IC50", "result": "> 25", "unit": "µM"}, {"measurement": "IC50", "setting": "SK-OV-3; read-out: IC50", "result": "> 25", "unit": "µM"}, {"measurement": "IC50", "setting": "Hep3B; read-out: IC50", "result": "> 25", "unit": "µM"}]}
{"compound": "D-arabinoside [33β]", "values": [{"measurement": "IC50", "setting": "NmuMG; NmuMG mouse mammary normal epithelial control line, read-out: IC50, NmuMG", "result": 0.12, "unit": "µM"}, {"measurement": "IC50", "setting": "Na+/K+-ATPase [2]", "result": "> 300", "unit": "µM"}, {"measurement": "IC50", "setting": "MCF7; read-out: IC50, MCF7", "result": 0.3, "unit": "µM"}, {"measurement": "IC50", "setting": "Du145; read-out: IC50, Du145", "result": 0.17, "unit": "µM"}, {"measurement": "IC50", "setting": "HCT-116; read-out: IC50, HCT-116", "result": 0.36, "unit": "µM"}, {"measurement": "cytotoxicity (in words)", "setting": "[3]", "result": "closely mimicked this activity"}, {"measurement": "IC50", "setting": "NCI-H460; read-out: IC50, NCI-H460", "result": 0.33, "unit": "µM"}, {"measurement": "IC50", "setting": "A549; read-out: IC50, A549", "result": 0.34, "unit": "µM"}, {"measurement": "IC50", "setting": "SF-268; read-out: IC50, SF-268", "result": 0.16, "unit": "µM"}, {"measurement": "IC50", "setting": "NCI/ADR-RES; read-out: IC50, NCI/ADR-RES", "result": 0.124, "unit": "µM"}, {"measurement": "IC50", "setting": "SK-OV-3; read-out: IC50, SK-OV-3", "result": 0.47, "unit": "µM"}, {"measurement": "IC50", "setting": "Na+/K+-ATPase [4]", "result": 170, "unit": "µM"}, {"measurement": "IC50", "setting": "Hep3B; read-out: IC50, Hep 3B", "result": 0.26, "unit": "µM"}]}
